In data set [1] the test system is human cancer cells (breast, bladder, colorectal cancer cell lines, acute myelogenous leukemia, osteosarcoma cells). Also noted: method as in PMID 26286663. As to conditions: cited from earlier work.
The subject of data set [2] is HepG2 cells. As to the kind of experiment: Cytotoxicity over the MTT, NRU, TPC and LDH assays, HepG2. Type of data set: cell-based, human. The note with it: HepG2, up to 1 μM, Figure S5. Here is the method: (§1) The human hepatoma cell line (HepG2) was purchased from the American Type Culture Collection (ATCC HB-8065). These cells were cultured in Minimum Essential Medium Eagle (MEME) (ATCC). The murine fibroblast cell line (Balb/c 3T3 clone A31) was purchased from the American Type Culture Collection (ATCC CCL-163), and the cells were cultured in Dulbecco’s Modified Eagle’s Medium (DMEM) (ATCC). The media were supplemented with 10% BCS (Balb/c 3T3), 10% FBS (HepG2), 1% L-glutamine, and 1% antibiotic solution. The cells were maintained in 75-cm^2 cell culture flasks (NUNC, Roskilde, Denmark) in a humidified incubator, NuAire (Plymouth, MN, USA) at 37 °C and 5% CO2. […]
(§2) As a control, cultured cells were grown in the absence of the studied compounds. […] Cytotoxicity was assessed after 72 h of cell exposure to the compounds in darkness. […]
(§3) MTT assay. The metabolic activity of living cells was assessed by the measurement of the activity of dehydrogenases. […] The plate was shaken for 15 min at room temperature and transferred to a microplate reader (Synergy HTX multi-mode reader (BioTek® Instruments Inc., Winooski, VT, USA)) to measure the absorbance at 570 nm, using a blank as a reference. Cytotoxicity was expressed as a percentage of the negative control (0.1% DMSO).
(§4) NRU assay. […] Cytotoxicity was expressed as a percentage of the negative control (0.1% DMSO). […]

Data set [3] concerns Balb/c 3T3 fibroblasts. As to the kind of experiment: Cytotoxicity over the MTT, NRU, TPC and LDH assays, Balb/c 3T3. Type of data set: cell-based, murine. The note with it: Balb/c 3T3, up to 1 μM, Figure S5. Here is the method:
as §1, §2, §3, §4

The conditions of data set [4]: cited from earlier work.
Data set [5] has as its system HepG2 cells. Description: TPC assay (total protein content), HepG2. Type of data set: cell-based, human. Here is the method: (§5) The human hepatoma cell line (HepG2) was purchased from the American Type Culture Collection (ATCC HB-8065). These cells were cultured in Minimum Essential Medium Eagle (MEME) (ATCC). The murine fibroblast cell line (Balb/c 3T3 clone A31) was purchased from the American Type Culture Collection (ATCC CCL-163), and the cells were cultured in Dulbecco’s Modified Eagle’s Medium (DMEM) (ATCC). The media were supplemented with 10% BCS (Balb/c 3T3), 10% FBS (HepG2), 1% L-glutamine, and 1% antibiotic solution. The cells were maintained in 75-cm^2 cell culture flasks (NUNC, Roskilde, Denmark) in a humidified incubator, NuAire (Plymouth, MN, USA) at 37 °C and 5% CO2. The medium was refreshed every two days and the cells were trypsinized by 0.25% trypsin–0.02% EDTA after reaching 70–80% confluence. Then, cell suspensions at a density of 2 × 10^5 cells/mL (HepG2) and 5 × 10^4 cells/mL (Balb/c 3T3) were transferred to 96-well plates (100 μL/well) and incubated for 24 h before the exposure to the studied compounds.
(§6) As a control, cultured cells were grown in the absence of the studied compounds. Each concentration was tested in six replicates in three independent experiments. Cytotoxicity was assessed after 72 h of cell exposure to the compounds in darkness. The medium was not changed during the incubation time.
(§7) TPC assay. The assay was based upon staining total cellular protein (proliferation). After the incubation, the medium containing drug was removed and 100 μL of Coomassie brilliant blue R-250 dye was added to each well. The plate was shaken for 10 min. Then, the stain was removed and the cells were rinsed twice with 100 μL of washing solution (glacial acetic acid/ethanol/water, 5:10:85, v:v:v). After that, 100 μL of the desorbing solution (1 M potassium acetate) was added, and plates were shaken again for 10 min. The absorbance was measured at 595 nm in a microplate reader (Synergy HTX multi-mode reader (BioTek® Instruments Inc., Winooski, VT, USA)) using a blank as a reference. Cytotoxicity was expressed as a percentage of the negative control (0.1% DMSO).
(§8) The study was performed in three independent experiments. […] Assessment of the cytotoxicity data used a one-way analysis of variance (ANOVA) followed by Dunnett’s post-hoc test, which was applied to determine significance relative to the negative control. The cytotoxicity concentration (IC20 and IC50) necessary for 20% and 50% inhibition of cell viability, respectively, by the drug was calculated using GraphPad Prism 5.0. Statistical comparisons among IC50 values were performed by the analysis of variance (ANOVA) followed by the Tukey test, and differences were considered statistically significant at p ≤ 0.05.

Data set [6] has as its system Balb/c 3T3 fibroblasts. Description: MTT assay (mitochondrial activity), Balb/c 3T3. Type of data set: cell-based, murine. The method, then: as §5, §6
(§9) MTT assay. The metabolic activity of living cells was assessed by the measurement of the activity of dehydrogenases. After incubation of the cells with the study compound, 10 μL of the MTT solution (5 mg/mL in phosphate buffered saline (PBS)) was added to each well of the 96-well plate and incubated. After 3 h, the MTT solution was removed, and intracellular formazan crystals were dissolved in 100 μL DMSO. The plate was shaken for 15 min at room temperature and transferred to a microplate reader (Synergy HTX multi-mode reader (BioTek® Instruments Inc., Winooski, VT, USA)) to measure the absorbance at 570 nm, using a blank as a reference. Cytotoxicity was expressed as a percentage of the negative control (0.1% DMSO).
as §8
On the technique in general: Tetrazolium dyes change colour on reduction, which living cells bring about.

In data set [7] the test system is HepG2 cells. As to the kind of experiment: LDH leakage assay (cellular membrane integrity), HepG2. The data set is classed as cell-based, human. Here is the method: as §5, §6
LDH leakage assay. The integrity of the plasma membrane was assessed through the test of lactate dehydrogenase (LDH) release, which was monitored using the commercially available Cytotoxicity Detection Kit (LDH) (Roche Diagnostics, Warsaw, Poland). The medium (100 μL/well) without cells was transferred into the corresponding wells of an optically clear 96-well flat-bottom microplate, and 100 μL of reaction mixture was added to each well. Then, the plates were incubated for 30 min at room temperature in darkness. After that time, 50 μL/well of 1 M HCl was added to stop the reaction. The absorbance was measured at 492 nm in a microplate reader (Synergy HTX multi-mode reader (BioTek® Instruments Inc., Winooski, VT, USA)) using a blank as a reference. […]
A general note: Release of lactate dehydrogenase indicates damage to the cell membrane.

The subject of data set [8] is Balb/c 3T3 fibroblasts. As to the kind of experiment: NRU assay (lysosomal activity), Balb/c 3T3. The data set is classed as cell-based, murine. Here is the method: as §5, §6
(§10) NRU assay. This method is based on staining living cells with neutral red which readily diffuses through the plasma membrane and accumulates in lysosomes. After the incubation, the medium containing the drug was removed, and the cells were washed with PBS. Then, 100 μL/well of NR solution (50 μg/mL) was added for 3 h. After this time, the cells were washed with PBS. The dye from viable cells was released by extraction with a mixture of acetic acid, ethanol, and water (1:50:49, v:v:v). After 10 min of shaking, the absorbance of the dissolved NR was measured using a Synergy HTX multi-mode reader (BioTek® Instruments Inc., Winooski, VT, USA) at 540 nm using a blank as a reference. Cytotoxicity was expressed as a percentage of the negative control (0.1% DMSO).
as §8

Data set [9] deals with HepG2 cells. As to the kind of experiment: MTT assay (mitochondrial activity), HepG2. Type of data set: cell-based, human. The method, then:
as §5, §6, §9, §8

The subject of data set [10] is Balb/c 3T3 fibroblasts. As to the kind of experiment: TPC assay (total protein content), Balb/c 3T3. Type of data set: cell-based, murine. The method, then: as §5, §6, §7, §8
Data set [11] has as its system HepG2 cells. As to the kind of experiment: NRU assay (lysosomal activity), HepG2. The data set is classed as cell-based, human. The method, then:
as §5, §6, §10, §8

In data set [12] the test system is Balb/c 3T3 fibroblasts. Description: LDH leakage assay (cellular membrane integrity), Balb/c 3T3. Type of data set: cell-based, murine. Here is the method: as §5, §6
LDH leakage assay. The integrity of the plasma membrane was assessed through the test of lactate dehydrogenase (LDH) release, which was monitored using the commercially available Cytotoxicity Detection Kit (LDH) (Roche Diagnostics, Warsaw, Poland). The medium (100 μL/well) without cells was transferred into the corresponding wells of an optically clear 96-well flat-bottom microplate, and 100 μL of reaction mixture was added to each well. Then, the plates were incubated for 30 min at room temperature in darkness. After that time, 50 μL/well of 1 M HCl was added to stop the reaction. The absorbance was measured at 492 nm in a microplate reader (Synergy HTX multi-mode reader (BioTek® Instruments Inc., Winooski, VT, USA)) using a blank as a reference.
as §8

Setting [13] is: HepG2, TPC, 72 h exposure, mean (n = 3) ± SD.
Setting [14] is: Balb/c 3T3, MTT, 72 h exposure, mean (n = 3) ± SD.
The mark [15] stands for this setting: Balb/c 3T3, NRU, 72 h exposure, mean (n = 3) ± SD.
Setting [16] is: HepG2, MTT, 72 h exposure, mean (n = 3) ± SD.
Where [17] appears, read: Balb/c 3T3, TPC, 72 h exposure, mean (n = 3) ± SD.
The mark [18] stands for this setting: HepG2, NRU, 72 h exposure, mean (n = 3) ± SD.
Setting [19] is: Balb/c 3T3, LDH, 72 h exposure, mean (n = 3) ± SD.

Where two headings read alike, the source gives them in different places. Where only a bound is given, the exact number is not on record here.

Broadly, the IC20 is the concentration needed for an effect of 20%. A word on the IC50: it is the concentration that inhibits the measured activity by half.

`Clc1ccc(COC(Cn2ccnc2)c2ccc(Cl)cc2Cl)c(Cl)c1` (stereo not shown) [Miconazole, 1-[2-(2,4-dichlorobenzyloxy)-2-(2,4-dichlorophenyl)ethyl]-1H-imidazole]: in data set [1], the “concentration inhibiting the proliferation of human cancer cells” value is no more than 10 µM. In addition, the “toxicity to the cell line (in words)” value in data set [2] and in [3] was “not toxic” each time. For the same compound, the solubility entry was “soluble” in data set [4] (ethanol), “hardly soluble” in [4] (methanol) and “practically insoluble” in data set [4] (water).
With `N.N.[Cl][Pt][Cl]` [Cisplatin, cis-diamminedichloroplatinum(II)], the IC20 in data set [5] (setting [13]) was less than 0.1 nM; in data set [6] (setting [14]) it was greater than 1000 nM; in data set [8] (setting [15]), greater than 1000 nM; in data set [9] (setting [16]), less than 0.1 nM; in data set [10] (setting [17]), greater than 1000 nM; in data set [11] (setting [18]), less than 0.1 nM. Besides, the IC20 in data set [12] (setting [19]) is greater than 1000 nM. Moreover, the IC50 in data set [5] (setting [13]) was greater than 1000 nM; in data set [6] (setting [14]), greater than 1000 nM; in data set [7] (HepG2, LDH, 72 h exposure, mean (n = 3) ± SD), 10 ± 1 nM; in [8] (setting [15]) it was greater than 1000 nM; in data set [9] (setting [16]), greater than 1000 nM; in data set [10] (setting [17]), greater than 1000 nM. Further, the IC50 in data set [11] (setting [18]) and in data set [12] (setting [19]) was greater than 1000 nM each time.
Turning to `O=[N+]([O-])[O-].[Ag+]` [AgNO3, Silver nitrate], the IC20 in data set [5], in data set [6], in [7], in data set [8], in data set [9] and in data set [10] was greater than 1000 nM throughout. Also, the IC20 in data set [11] and in data set [12] was greater than 1000 nM each time. In addition, the IC50 in data set [5], in data set [6], in data set [7], in [8], in data set [9] and in data set [10] was greater than 1000 nM throughout. For the same compound, the 50% inhibitory concentration (IC50) in data set [11] and in data set [12] was greater than 1000 nM in each case.

The values above are taken from PMC7279231 (International Journal of Molecular Sciences, 2020).
